Results taken from patent US20240327393A1 (SIRONAX LTD., priority 2021, published 2024).

test system: HT-1080 (ATCC, CCL-121) cells; test: HT-1080 cell viability assay with ferroptosis inducer RSL3 (Cell Titer-Glo); type: cell-based; conditions: HT-1080 cells treated with RSL3; 3-fold, 10-point dilution, 1.1 μM highest concentration; Table 3; read-out: EC50 (nM), ferroptosis inhibitory activity
Method in brief: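 EC50 was derived by sigmoidal dose-response regression of CellTiter-Glo luminescence viability, expressed relative to untreated wells. Compounds were tested in a ten-point, threefold dilution series (highest 1.1 μM) in the presence of the ferroptosis inducer RSL3. HT-1080 cells had been seeded at 6000 per well and grown overnight first.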

Compound	EC50 [nM]
Cc1cc(N2CCC(C(F)(F)F)C2)ccc1Nc1ccc2c(c1)OCC(=O)N2 (centres unmarked) [Compound 502, 7-((2-methyl-4-(3-(trifluoromethyl)pyrrolidin-1-yl)phenyl)amino)-2H-benzo[b][1,4]oxazin-3(4H)-one]	0.1 to 100

same assay, conditions: Homo sapiens; HT-1080 cells treated with RSL3; 3-fold, 10-point dilution, 1.1 μM highest concentration; Table 2; read-out: EC50 (nM), ferroptosis inhibitory activity

Compound	EC50 [nM]
CCN1Cc2ccc(Nc3ccc(N4CCC(C)CC4)cc3)cc2C1 [Compound 176, 2-ethyl-N-(4-(4-methylpiperidin-1-yl)phenyl)isoindolin-5-amine]	0.1 to 100
Cc1cc(=O)oc2cc(Nc3ccc(C(C)(C)C)cc3)ccc12 [Compound 118, 7-((4-(tert-butyl)phenyl)amino)-4-methyl-2H-chromen-2-one]	0.1 to 100
CN1Cc2cc(Nc3ccc4nccn4c3)ccc2C1=O [Compound 233, 5-(imidazo[1,2-a]pyridin-6-ylamino)-2-methylisoindolin-1-one]	100 to 1000
NC(=O)NCCn1cc2cc(Nc3ccc(N4CCC(C(F)(F)F)CC4)cc3)ccc2n1 [Compound 419, 1-(2-(5-((4-(4-(trifluoromethyl)piperidin-1-yl)phenyl)amino)-2H-indazol-2-yl)ethyl)urea]	0.1 to 100
O=C1COc2cc(Nc3ccc(N4CCC(C(F)(F)F)CC4)cc3)ccc2N1CCO [Compound 83]	0.1 to 100
CN1Cc2cc(Nc3ccc(N4CCC(F)(F)CC4)cc3)ccc2C1=O [Compound 172, 5-((4-(4,4-difluoropiperidin-1-yl)phenyl)amino)-2-methylisoindolin-1-one]	0.1 to 100
Cc1cc(Nc2ccc(N3CCC(C(F)(F)F)CC3)cc2)cc2c1C(=O)N(C)C2 [Compound 326, 2,7-dimethyl-5-((4-(4-(trifluoromethyl)piperidin-1-yl)phenyl)amino) isoindolin-1-one]	0.1 to 100
Cc1c(N2CCC(C)CC2)ccc(Nc2ccc3c(c2)n(C)c(=O)n3C)c1F [Compound 263, 5-((2-fluoro-3-methyl-4-(4-methylpiperidin-1-yl)phenyl)amino)-1,3-dimethyl-1,3-dihydro-2H-benzo[d]imidazol-2-one]	0.1 to 100
Cc1cc(N2CCC(C)CC2)c(Cl)cc1Nc1ccc2c(c1)n(C)c(=O)n2C [Compound 265, 5-((5-chloro-2-methyl-4-(4-methylpiperidin-1-yl)phenyl)amino)-1,3-dimethyl-1,3-dihydro-2H-benzo[d]imidazol-2-one]	0.1 to 100
COCCOCCN1Cc2cc(Nc3ccc(N4CCC(C(F)(F)F)CC4)cc3)ccc2C1=O [Compound 198, 2-(2-(2-methoxyethoxy)ethyl)-5-((4-(4-(trifluoromethyl)piperidin-1-yl)phenyl)amino)isoindolin-1-one]	0.1 to 100
CC1CN(c2ccc(Nc3ccc4c(c3)oc(=O)n4CCN(C)C)cc2)CC(C)O1 (centres unmarked) [Compound 424]	0.1 to 100
Cn1c(=O)oc2cc(Nc3ccc(N4CCC(O)(C(F)(F)F)CC4)cc3)ccc21 [Compound 333, 6-((4-(4-hydroxy-4-(trifluoromethyl)piperidin-1-yl)phenyl)amino)-3-methylbenzo[d]oxazol-2(3H)-one]	0.1 to 100
Cn1c(=O)n(C)c2cc(Nc3ccc(CN4CCCC4)cc3)ccc21 [Compound 295, 1,3-dimethyl-5-((4-(pyrrolidin-1-ylmethyl)phenyl)amino)-1,3-dihydro-2H-benzo[d]imidazol-2-one]	1000 to 10000
CN(C)CCn1c(=O)n(C)c2cc(Nc3ccc(C4CCC(C)(C)CC4)cc3)ccc21 [Compound 405, 1-(2-(dimethylamino)ethyl)-5-((4-(4,4-dimethylcyclohexyl)phenyl)amino)-3-methyl-1,3-dihydro-2H-benzo[d]imidazol-2-one]	0.1 to 100
Cn1[nH]c2cc(Nc3ccc(N4CCC(C(F)(F)F)CC4)c(F)c3)ccc2c1=O [Compound 219, 6-((3-fluoro-4-(4-(trifluoromethyl)piperidin-1-yl)phenyl)amino)-2-methyl-1,2-dihydro-3H-indazol-3-one]	0.1 to 100
CN(C)c1ccc(Nc2ccc3c(c2)n(C)c(=O)n3C)cc1 [Compound 284, 5-((4-(dimethylamino)phenyl)amino)-1,3-dimethyl-1,3-dihydro-2H-benzo[d]imidazol-2-one]	0.1 to 100
CN1Cc2cc(Nc3cccc(N(C)C)c3)ccc2C1=O [Compound 234, 5-((3-(dimethylamino)phenyl)amino)-2-methylisoindolin-1-one]	0.1 to 100
Cc1cc(N2CCC(C(F)(F)F)CC2)ccc1Nc1ccc2c(c1)CNC2 [Compound 410, N-(2-methyl-4-(4-(trifluoromethyl)piperidin-1-yl)phenyl) isoindolin-5-amine]	0.1 to 100
CN1CCN(CC(=O)N2Cc3ccc(Nc4ccc(N5CCC(C(F)(F)F)CC5)c(F)c4)cc3C2)CC1 [Compound 164]	0.1 to 100
Cn1c(=O)n(CCN2CCCC2=O)c2ccc(Nc3ccc(N4CCC(C(F)(F)F)CC4)cc3)cc21 [Compound 367, 3-methyl-1-(2-(2-oxopyrrolidin-1-yl)ethyl)-5-((4-(4-(trifluoromethyl)piperidin-1-yl)phenyl)amino)-1,3-dihydro-2H-benzo[d]imidazol-2-one]	0.1 to 100
CN1C(=O)COc2cc(Nc3cc(F)c(N4CCC(O)(C(F)(F)F)CC4)c(F)c3)ccc21 [Compound 160, 7-((3,5-difluoro-4-(4-hydroxy-4-(trifluoromethyl)piperidin-1-yl)phenyl)amino)-4-methyl-2H-benzo[b][1,4]oxazin-3(4H)-one]	0.1 to 100
Cn1c(=O)cnc2cc(Nc3ccc(N4CCC(C(F)(F)F)CC4)cc3)ccc21 [Compound 111, 1-methyl-6-((4-(4-(trifluoromethyl)piperidin-1-yl)phenyl)amino) quinoxalin-2(1H)-one]	0.1 to 100
CN1C(=O)COc2cc(Nc3ccc(N4CCC(C(F)(F)F)CC4)cc3)cc(F)c21 [Compound 88, 5-fluoro-4-methyl-7-((4-(4-(trifluoromethyl)piperidin-1-yl)phenyl)amino)-2H-benzo[b][1,4]oxazin-3(4H)-one]	0.1 to 100
CC1CCN(c2ccc(Nc3ccc4c(c3)C(=O)N(C)C4)cc2)CC1 [Compound 170, 2-methyl-6-((4-(4-methylpiperidin-1-yl)phenyl)amino)isoindolin-1-one]	0.1 to 100
Cc1c(Nc2ccc3c(c2)OCC(=O)N3C)ccc(N2CCC(C(F)(F)F)CC2)c1F [Compound 63, 7-((3-fluoro-2-methyl-4-(4-(trifluoromethyl)piperidin-1-yl)phenyl)amino)-4-methyl-2H-benzo[b][1,4]oxazin-3(4H)-one]	0.1 to 100
Cc1nc(N2CCC(C(F)(F)F)CC2)ccc1Nc1ccc2c(c1)OCC(=O)N2C [Compound 26, 4-methyl-7-((2-methyl-6-(4-(trifluoromethyl)piperidin-1-yl)pyridin-3-yl)amino)-2H-benzo[b][1,4]oxazin-3(4H)-one]	0.1 to 100
Cn1c(=O)n(C)c2cc(Nc3ccc(C(=O)N4CCCC4)cc3)ccc21 [Compound 292, 1,3-dimethyl-5-((4-(pyrrolidine-1-carbonyl)phenyl)amino)-1,3-dihydro-2H-benzo[d]imidazol-2-one]	1000 to 10000

same assay, conditions: Homo sapiens; HT-1080 cells treated with RSL3; 3-fold, 10-point dilution, 1.1 μM highest concentration; Table 3; read-out: EC50 (nM), ferroptosis inhibitory activity

Compound	EC50 [nM]
Cc1cc(N2CC(C)OC(C)C2)ccc1Nc1ccc2c(c1)nc(N)n2C (centres unmarked) [Compound 536, 5-N-[4-(2,6-dimethylmorpholin-4-yl)-2-methylphenyl]-1-methyl-1,3-benzodiazole-2,5-diamine]	0.1 to 100
Cc1cc(N2CCC(F)(F)C2)ccc1Nc1ccc2c(c1)OCCC(=O)N2 [Compound 622, 8-((4-(3,3-difluoropyrrolidin-1-yl)-2-methylphenyl)amino)-2,3-dihydrobenzo[b][1,4]oxazepin-4(5H)-one]	0.1 to 100
Cc1cc(N2CCC(C(F)(F)F)CC2)ccc1Nc1ccc2c(c1)C(C)(C)C(=O)N2 [Compound 514, 3,3-dimethyl-5-((2-methyl-4-(4-(trifluoromethyl)piperidin-1-yl)phenyl)amino)indolin-2-one]	0.1 to 100
Cc1cc(N2CCC2)ccc1Nc1ccc2c(c1)OCC(=O)N2 [Compound 585, 7-((4-(azetidin-1-yl)-2-methylphenyl)amino)-2H-benzo[b][1,4]oxazin-3(4H)-one]	0.1 to 100
O=C1CCOc2cc(Nc3ccc(N4CCC(O)(C(F)(F)F)CC4)cc3)ccc2N1 [Compound 556, 8-((4-(4-hydroxy-4-(trifluoromethyl)piperidin-1-yl)phenyl)amino)-2,3-dihydrobenzo[b][1,4]oxazepin-4(5H)-one]	0.1 to 100
C[C@@H]1C[C@H](c2ccc(Nc3ccc4c(c3)OCC(=O)N4)cc2)CCO1 [Compound 484, 7-((4-((2R,4R)-2-methyltetrahydro-2H-pyran-4-yl)phenyl)amino)-2H-benzo[b][1,4]oxazin-3(4H)-one]	0.1 to 100
Cc1cc(N2CCC(C(F)(F)F)CC2)ccc1Nc1ccc2c(c1)NCCC(=O)N2 [Compound 643, 7-((2-methyl-4-(4-(trifluoromethyl)piperidin-1-yl)phenyl)amino)-1,3,4,5-tetrahydro-2H-benzo[b][1,4]diazepin-2-one]	0.1 to 100
Cc1cc(N2CC(C)OC(C)C2)ccc1Nc1ccc2c(c1)OCC(=O)N2CCO (centres unmarked) [Compound 456, 7-((4-(2,6-dimethylmorpholino)-2-methylphenyl)amino)-4-(2-hydroxyethyl)-2H-benzo[b][1,4]oxazin-3(4H)-one]	0.1 to 100
O=C1COc2cc(Nc3ccc(N4CCC(C(F)(F)F)CC4)cc3F)ccc2N1 [Compound 466, 7-((2-fluoro-4-(4-(trifluoromethyl)piperidin-1-yl)phenyl)amino)-2H-benzo[b][1,4]oxazin-3(4H)-one]	0.1 to 100
O=C1COc2cc(Nc3ccc(N4CCC(C(F)(F)F)CC4)cc3)cc(F)c2N1 [Compound 619, 5-fluoro-7-({4-[4-(trifluoromethyl)piperidin-1-yl]phenyl}amino)-2,4-dihydro-1,4-benzoxazin-3-one]	0.1 to 100
